Entries after “also recorded” stand apart in the source; their conditions may differ. Structures can show the parent of a compound that is named as a salt. Where two headings read alike, the source gives them in different places.

Test [1] concerns the target T1, DOR (Homo sapiens, UniProt P41143).
T1 construct: host or cells: CHO (CHO-hDOR)
The test can be described thus: [35S]GTPγS binding assay, CHO-hDOR membranes. It is filed as biochemical. The settings on record: for EC50: [35S]GTPγS, CHO human DOR membranes; for Emax: relative to reference full agonist DPDPE, read-out: DOR % stim.

For test [2], the target named is T2, MOR (Homo sapiens, UniProt P35372).
T2 construct: host or cells: CHO (CHO-hMOR)
Kind of test: [35S]GTPγS binding assay, CHO-hMOR membranes. It is filed as biochemical. The settings on record: for Emax: relative to reference full agonist DAMGO, read-out: MOR % stim.; for functional profile at MOR (full/partial agonist): full agonist ≥85% of the response to DAMGO. (In general: Binding of GTPγS marks nucleotide exchange on a G protein.)

Test [3] deals with T3, KOR (Homo sapiens, UniProt P41145).
T3 construct: host or cells: CHO (CHO-hKOR)
Kind of test: [35S]GTPγS binding assay, CHO-hKOR membranes. It counts as biochemical. The settings on record: for EC50: [35S]GTPγS, CHO human KOR membranes, read-out: KOR EC50; for Emax: relative to reference full agonist U69,593, read-out: KOR % stim.; for functional profile at KOR (full/partial agonist): partial agonist <85% of the response to U69,593.

The next test has as its system male CD1 mice. The test can be described thus: acetic acid-induced writhing assay after sc administration. The settings on record: for ED50: Mus musculus, 0.5 h, read-out: ED50 (95% CI), mice, sc, inhibition of writhing 30 min after drug administration. It counts as in vivo, mouse. Background: An intraperitoneal irritant provokes the stretching counted in writhing tests.

Test [4] has as its system peripheral opioid receptors. Kind of test: antagonism by naloxone methiodide in the acetic acid-induced writhing assay. The settings on record: sc co-administration with naloxone methiodide 1 mg/kg; agonist 50 or 200 μg/kg sc; 30 min. It counts as in vivo, mouse. The text has this: To determine whether targeted 6-amino acid and 6-dipeptide analogues inhibit writhing behavior in mice through peripheral opioid receptors activation, we used naloxone methiodide.[27]
Values are shown as mean of writhes ± SEM (n = 6–7 mice per group). ***P < 0.001 vs control group; ^#P < 0.05, ^##P < 0.01 and ^###P < 0.001 vs agonist treated group, ANOVA with Tukey’s post hoc test.
Writhing was induced in male CD1 mice by ip injection of a 0.6% acetic acid aqueous solution as described previously.[48],[62] Groups of mice were administered sc different doses of test compound or saline (control), and 5 min prior to testing (25 min after drug or saline), each animal received an ip injection of acetic acid solution. Each mouse was placed in individual transparent Plexiglas chambers, and the number of writhes was counted during a 10 min observation period. […] For the antagonism study, naloxone methiodide was sc co-administered with the respective opioid agonist, and writhing was assessed as described above.

Test [5] addresses T4, DOR (Rattus norvegicus, UniProt P33533).
T4 construct: Membranes were prepared from Sprague-Dawley rat brains or guinea-pig brains according to the described procedures; tissue Labortierkunde und Laborgenetik, Medizinische Universität Wien; host or cells: Sprague-Dawley rat brain without cerebella
Kind of test: competition radioligand binding, rat brain membranes, [3H][Ile5,6]deltorphin II. The settings on record: rat brain membranes; read-out: opioid receptor binding Ki DOR.

Test [6] has as its target T5, MOR (Rattus norvegicus, UniProt P33535).
T5 construct: Membranes were prepared from Sprague-Dawley rat brains or guinea-pig brains according to the described procedures; tissue Labortierkunde und Laborgenetik, Medizinische Universität Wien; host or cells: Sprague-Dawley rat brain without cerebella
The test can be described thus: competition radioligand binding, rat brain membranes, [3H]DAMGO. As to conditions: for Ki: rat brain membranes, read-out: opioid receptor binding Ki MOR.

Test [7] deals with T6, KOR (Cavia porcellus, UniProt P41144).
T6 construct: Membranes were prepared from Sprague-Dawley rat brains or guinea-pig brains according to the described procedures; tissue Labortierkunde und Laborgenetik, Medizinische Universität Wien; host or cells: guinea-pig brain without cerebella
The test can be described thus: competition radioligand binding, guinea-pig brain membranes, [3H]U69,593. As to conditions: guinea-pig brain membranes; read-out: opioid receptor binding Ki KOR.

The target in test [8] is T1, DOR. Kind of test: competition radioligand binding, CHO cell membranes expressing human DOR, [3H]diprenorphine. The protocol: (§1) Membranes from CHO cells expressing human opioid receptors were prepared in 50 mM Tris-HCl buffer (pH 7.7) according to a previously described procedure.[64] Cells expressing human opioid receptors grown at confluence were removed from the culture plates by scraping, homogenized in 50 mM Tris buffer (pH 7.7), using a Polytron homogenizer, then centrifuged once and washed by an additional centrifugation at 27 000g for 15 min, at 4 °C. The final pellet was resuspended in Tris buffer and stored at −80 °C until use. Protein content of brain and cell membrane preparation homogenates was determined by the method of Bradford using bovine serum albumin as the standard.[65]
(§2) Rat brain membranes were incubated with either [^3H]DAMGO (1 nM, 45 min, 35 °C) or [^3H][Ile^5,6]deltorphin II (0.5 nM, 45 min, 35 °C) for labeling MOR or DOR receptors, respectively. Guinea-pig brain membranes were incubated with [^3H]U69,593 (1 nM, 30 min, 30 °C) for labeling KOR. Binding assays with CHO cell membranes were conducted at 25 °C for 60 min using [^3H]DAMGO (1 nM) or [^3H]diprenorphine (0.2 nM) for labeling MOR or DOR, respectively. Nonspecific binding was determined using 10 μM naloxone (rodent brain) or 1–10 μM of the unlabeled counterpart of each radioligand (CHO cells). Reactions were terminated by rapid filtration through Whatman glass fiber GF/C filters. Filters were washed three times with 5 mL of ice-cold 50 mM Tris-HCl buffer (pH 7.4) using a Brandel M24R cell harvester (Gaithersburg, MD). Radioactivity retained on the filters was counted by liquid scintillation counting using a Beckman Coulter LS6500 (Beckman Coulter Inc., Fullerton, CA). All binding experiments were performed in duplicate and repeated at least three times.
(§3) aDetermined in competition radioligand binding assays using CHO cell membranes expressing
(§4) human MOR and DOR. Values represent the mean ± SEM of three independent experiments each

In test [9] the target is T2, MOR. The test can be described thus: competition radioligand binding, CHO cell membranes expressing human MOR, [3H]DAMGO. Here is the method:
as §1, §2, §3, §4

[10] abbreviates: [35S]GTPγS, CHO human MOR membranes, read-out: MOR EC50.

`CO[C@@]12CC[C@H](N[C@@H](CCCCN)C(=O)O)[C@@H]3Oc4c(O)ccc5c4[C@@]31CCN(C)[C@@H]2C5` [Compound 8a, (2S)-6-Amino-2-[(4,5α-epoxy-3-hydroxy-14β-methoxy-17-methylmorphinan-6α-yl)amino]hexanoic Acid Trihydrochloride]: the EC50 at DOR [1] is 152 ± 2 nM; at MOR [2] (setting [10]), 2.25 ± 0.07 nM; on KOR [3], 118 ± 26 nM. The Emax worked out at 106 ± 4% at DOR [1], 90 ± 8% at MOR [2] and 79 ± 13% on KOR [3]. For the same molecule, the ED50 in the test with male CD1 mice is 0.0206 mg/kg. The “effect of naloxone methiodide on antinociceptive effect” value (from here on “effect of naloxone methiodide”) in [4] is on record as “reversed”.

In the case of `CO[C@@]12CC[C@@H](N[C@@H](CCCCN)C(=O)O)[C@@H]3Oc4c(O)ccc5c4[C@@]31CCN(C)[C@@H]2C5` [Compound 8b, (2S)-6-Amino-2-[(4,5α-epoxy-3-hydroxy-14β-methoxy-17-methylmorphinan-6β-yl)amino]hexanoic Acid Trihydrochloride], the EC50 on DOR [1] worked out at 45.1 ± 22.7 nM; at MOR [2] (setting [10]) it was 6.85 ± 1.39 nM; on KOR [3], 525 ± 24 nM. In addition, the Emax at DOR [1] amounted to 93 ± 8%; at MOR [2], 90 ± 7%; at KOR [3], 62 ± 7%. In addition, the Ki on DOR [5] was determined as 3.34 ± 0.46 nM; on MOR [6], 0.53 ± 0.09 nM; at KOR [7], 33.7 ± 4.1 nM. For the same molecule, the “effect of naloxone methiodide” value in test [4] was “antagonized”.

Consider `CO[C@@]12CC[C@@H](N[C@@H](Cc3c[nH]c4ccccc34)C(=O)O)[C@@H]3Oc4c(O)ccc5c4[C@@]31CCN(C)[C@@H]2C5` [Compound 10b, (2S)-2-[(4,5α-Epoxy-3-hydroxy-14β-methoxy-17-methylmorphinan-6β-yl)-amino]-3-(1H-indolo-3yl)propionic Acid Dihydrochloride], for which the EC50 on DOR [1] is 2.18 ± 0.72 nM; at MOR [2] (setting [10]) it was 1.64 ± 0.43 nM; at KOR [3], 181 ± 49 nM. Further, the Emax worked out at 96 ± 5% on DOR [1], 101 ± 11% at MOR [2] and 87 ± 8% on KOR [3]. The “functional profile at KOR (full/partial agonist)” value at KOR [3] is given as “full agonists”. Further, in the test on male CD1 mice, the ED50 worked out at 0.0927 mg/kg. For the same molecule, the “effect of naloxone methiodide” value in test [4] is reported as “reversed; also recorded: antagonized”.

In the case of `CO[C@@]12CC[C@@H](N[C@H](Cc3ccccc3)C(=O)O)[C@@H]3Oc4c(O)ccc5c4[C@@]31CCN(C)[C@@H]2C5` [Compound 17b, (2R)-2-[(4,5α-Epoxy-3-hydroxy-14β-methoxy-17-methyl-morphinan-6β-yl)-amino]-3-phenylpropionic Acid Dihydrochloride], the Ki is 2.17 ± 0.26 nM at DOR [8]; 1.19 ± 0.13 nM at DOR [5]; 1.28 ± 0.38 nM on MOR [6]; 1.84 ± 0.14 nM on MOR [9]; 139 ± 23 nM at KOR [7]. Besides, the half-maximal effective concentration (EC50) at DOR [1] was 1.71 ± 0.78 nM; at MOR [2], less than 1 nM; on MOR [2] (setting [10]), 0.68 ± 0.29 nM; on KOR [3] it was 611 ± 350 nM. In addition, the Emax at DOR [1] was 96 ± 1%; at MOR [2], approximately 80%; at KOR [3], 92 ± 10%. In addition, the “functional profile at MOR (full/partial agonist)” value at MOR [2] is reported as “partial agonist”. In addition, the “functional profile at KOR (full/partial agonist)” value on KOR [3] was “full agonists”. The “increase in MOR binding affinity vs comparator” value at MOR [6] (rat brain, 17b vs 4b, 16a/b vs 7a/b, 22a/b vs 7a, 7b and 9b, 14a vs 14b) is on record as “ca. 2 times”. In addition, in the test on male CD1 mice, the ED50 amounted to 0.25 mg/kg.

Regarding `CO[C@@]12CC[C@@H](NCC(=O)NCC(=O)O)[C@@H]3Oc4c(O)ccc5c4[C@@]31CCN(C)[C@@H]2C5` [Compound 23a, 2-[2-[(4,5-Epoxy-3-hydroxy-14β-methoxy-17-methylmorphinan-6β-yl)amino]acetylamino]acetic Acid], the half-maximal effective concentration (EC50) at DOR [1] was 2.84 ± 1.63 nM; at MOR [2] (setting [10]), 4.39 ± 0.54 nM; at KOR [3], 885 ± 298 nM. Moreover, on DOR [1] (full agonist ≥85% of the response to DPDPE), the “functional profile at DOR (full/partial agonist)” value was “full agonist”. Besides, the Emax on DOR [1] was determined as 102 ± 7%; at MOR [2] it was 85 ± 9%; on KOR [3], 75 ± 0.7%. The “functional profile at MOR (full/partial agonist)” value at MOR [2] is reported as “full agonist”. Moreover, at MOR [6] (rat brain), the “lower affinity at MOR vs 2a” value is “about 5 times”. In the test on male CD1 mice, the ED50 came out at 0.104 mg/kg. For the same molecule, the “higher antinociceptive potency than morphine” value in the test on male CD1 mice (writhing assay, mice) came to 4 times. Further, in test [4], the “effect of naloxone methiodide” value was “antagonized”.

As usually defined, the EC50 is the concentration at which the effect is half-maximal. As a reminder, the Ki is a dissociation constant, usually derived from enzyme kinetics or from competition with a known ligand.

Source of the values: PMC6348443 (Journal of Medicinal Chemistry, 2018).
